Results on two molecules are retold here after ChEMBL document CHEMBL4507259 (2021).

Experiment [1] has as its target Sodium-dependent dopamine transporter (Homo sapiens, UniProt Q01959). Description: GPCRScan assay: inhibition of DAT. The arrangement: radioligand conc. used [nm] 3.6 – 16.0, parental cells stable HEK.
The target in experiment [2] is Beta-2 adrenergic receptor (Homo sapiens) (UniProt P07550). Description: beta 2 (h) CEREP ligand profiling. The conditions noted are these: filed as agonist, Compound concentration 10.0 uM.
Experiment [3] concerns the target Histone acetyltransferase KAT2B (Homo sapiens) (UniProt Q92831). As to the kind of experiment: PCAF (HAT) CEREP ligand profiling. The settings on record: Compound concentration 10.0 uM.
The test system of the next experiment is Calu-6. As to the kind of experiment: Calu 6 cell line Proliferation assay. Format: functional, Homo sapiens. The settings on record: Compound concentration 10 uM; time 3 day.
The test system of another experiment is HCC2935. Description: HCC2935 cell line Proliferation assay. The format is functional, Homo sapiens. The settings on record: Compound concentration 10 uM; time 3 day.
The test system of another experiment is COLO-679. As to the kind of experiment: Colo679 cell line Proliferation assay. The format is functional, Homo sapiens. The conditions noted are these: Compound concentration 10 uM; time 5 day.
A further experiment deals with Hs 695T. Description: Hs695T cell line Proliferation assay. Format: functional, Homo sapiens. The conditions noted are these: Compound concentration 10 uM; time 5 day.
The test system of a further experiment is NCI-H69. As to the kind of experiment: H69 cell line Proliferation assay. Format: functional, Homo sapiens. The conditions noted are these: Compound concentration 10 uM; time 4 day.
A further experiment relates to NCI-H2081. Description: H2081 cell line Proliferation assay. Format: functional, Homo sapiens. The conditions noted are these: Compound concentration 10 uM; time 4 day.
For the next experiment, the system named is EMT6. As to the kind of experiment: EMT6 (mouse) cell line Proliferation assay. The conditions noted are these: Compound concentration 10 uM; time 5 day. The format is functional.
For the next experiment, the system named is DU-4475. Description: DU4475 cell line Proliferation assay. The format is functional, Homo sapiens. The settings on record: Compound concentration 10 uM; time 5 day.
The test system of the next experiment is NCI-H929. Description: H929 cell line Proliferation assay. Format: functional, Homo sapiens. The settings on record: Compound concentration 10 uM; time 3 day.
The subject of a further experiment is SU-DHL-8. As to the kind of experiment: SuDHL8 cell line Proliferation assay. Format: functional, Homo sapiens. The settings on record: Compound concentration 10 uM; time 3 day.
The test system of a further experiment is OCI-Ly7. As to the kind of experiment: OCI Ly7 cell line Proliferation assay. The conditions noted are these: Compound concentration 10 uM; time 3 day. Format: functional, Homo sapiens.
The next experiment has as its system Kasumi 1. As to the kind of experiment: Kasumi-1 cell line Proliferation assay. Format: functional, Homo sapiens. The settings on record: Compound concentration 10 uM; time 3 day.
For experiment [4], the target named is Calcitonin-gene-related peptide receptor, CALCRL/RAMP1 (Homo sapiens) (UniProt O60894+Q16602). Description: Calcitonin Gene-Related Peptide CGRP1 CEREP ligand profiling. The settings on record: Compound concentration 10.0 uM. Format: protein-complex assay.
For experiment [5], the target named is Activin receptor type-1 (Homo sapiens) (UniProt Q04771). The settings on record: Compound concentration 1000.0 nM.
Experiment [6] concerns the target Cyclin-dependent kinase 9 (Homo sapiens) (UniProt P50750). The settings on record: Compound concentration 1000.0 nM.
Experiment [7] concerns the target Ephrin type-A receptor 8 (Homo sapiens) (UniProt P29322). The conditions noted are these: Compound concentration 1000.0 nM.

Each structure is given as a SMILES string.

Sequence of Sodium-dependent dopamine transporter (Q01959 whole entry): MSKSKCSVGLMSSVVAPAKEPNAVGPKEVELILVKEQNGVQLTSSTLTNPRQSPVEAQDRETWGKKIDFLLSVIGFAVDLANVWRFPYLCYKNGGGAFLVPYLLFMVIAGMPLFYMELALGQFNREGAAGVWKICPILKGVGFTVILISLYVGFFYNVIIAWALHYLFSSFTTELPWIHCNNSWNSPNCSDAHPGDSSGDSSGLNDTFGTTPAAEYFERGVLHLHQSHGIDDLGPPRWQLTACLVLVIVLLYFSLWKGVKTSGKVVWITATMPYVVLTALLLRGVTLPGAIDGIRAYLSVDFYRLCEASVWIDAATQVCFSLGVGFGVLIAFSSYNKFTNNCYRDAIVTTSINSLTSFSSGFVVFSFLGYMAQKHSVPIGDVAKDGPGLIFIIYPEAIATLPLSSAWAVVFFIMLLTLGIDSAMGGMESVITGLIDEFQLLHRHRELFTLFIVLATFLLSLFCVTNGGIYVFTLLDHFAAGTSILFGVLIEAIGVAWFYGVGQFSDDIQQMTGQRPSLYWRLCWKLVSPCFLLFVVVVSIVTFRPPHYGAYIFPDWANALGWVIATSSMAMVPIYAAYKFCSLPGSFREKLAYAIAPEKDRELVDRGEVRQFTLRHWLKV
Sequence of Activin receptor type-1 (Homo sapiens) (Q04771 whole entry): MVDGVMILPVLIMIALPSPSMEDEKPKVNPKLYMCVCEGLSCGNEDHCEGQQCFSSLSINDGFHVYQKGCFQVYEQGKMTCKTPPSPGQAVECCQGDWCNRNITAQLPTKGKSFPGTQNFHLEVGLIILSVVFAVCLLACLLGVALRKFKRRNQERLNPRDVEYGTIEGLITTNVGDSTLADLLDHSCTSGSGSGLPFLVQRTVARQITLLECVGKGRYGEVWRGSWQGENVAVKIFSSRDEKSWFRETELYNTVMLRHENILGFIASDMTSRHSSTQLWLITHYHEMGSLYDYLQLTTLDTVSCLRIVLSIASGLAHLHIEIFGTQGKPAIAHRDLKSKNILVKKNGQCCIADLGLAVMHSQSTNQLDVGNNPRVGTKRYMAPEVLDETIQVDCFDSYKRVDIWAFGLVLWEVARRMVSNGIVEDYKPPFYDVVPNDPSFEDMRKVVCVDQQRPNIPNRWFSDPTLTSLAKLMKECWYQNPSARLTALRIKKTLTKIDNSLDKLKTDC
Sequence of Ephrin type-A receptor 8 (Homo sapiens) (P29322 whole entry): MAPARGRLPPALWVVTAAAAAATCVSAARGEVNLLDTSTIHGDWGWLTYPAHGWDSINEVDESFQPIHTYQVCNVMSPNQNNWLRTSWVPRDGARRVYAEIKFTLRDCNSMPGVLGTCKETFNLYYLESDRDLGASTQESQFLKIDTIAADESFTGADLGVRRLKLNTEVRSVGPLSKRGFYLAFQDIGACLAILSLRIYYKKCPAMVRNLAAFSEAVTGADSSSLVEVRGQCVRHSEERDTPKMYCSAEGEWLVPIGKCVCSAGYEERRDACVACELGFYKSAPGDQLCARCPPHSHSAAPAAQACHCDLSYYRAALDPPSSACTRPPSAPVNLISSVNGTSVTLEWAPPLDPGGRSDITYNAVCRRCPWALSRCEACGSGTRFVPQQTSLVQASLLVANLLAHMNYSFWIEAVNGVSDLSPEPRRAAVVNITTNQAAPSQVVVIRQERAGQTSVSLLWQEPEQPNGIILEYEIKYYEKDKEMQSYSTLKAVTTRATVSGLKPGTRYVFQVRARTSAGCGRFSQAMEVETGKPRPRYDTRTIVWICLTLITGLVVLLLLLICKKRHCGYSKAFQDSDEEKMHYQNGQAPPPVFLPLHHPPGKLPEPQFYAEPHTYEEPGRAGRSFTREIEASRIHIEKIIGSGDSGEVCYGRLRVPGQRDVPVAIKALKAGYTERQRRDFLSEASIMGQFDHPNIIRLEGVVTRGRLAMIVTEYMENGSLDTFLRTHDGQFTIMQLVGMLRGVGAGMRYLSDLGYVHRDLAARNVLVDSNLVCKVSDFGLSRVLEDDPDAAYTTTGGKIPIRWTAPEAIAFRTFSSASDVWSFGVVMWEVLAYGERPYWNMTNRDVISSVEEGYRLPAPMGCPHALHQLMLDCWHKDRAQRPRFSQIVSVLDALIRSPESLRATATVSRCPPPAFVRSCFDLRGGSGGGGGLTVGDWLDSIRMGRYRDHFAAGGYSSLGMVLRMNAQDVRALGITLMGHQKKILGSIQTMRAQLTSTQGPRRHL
Sequence of Cyclin-dependent kinase 9 (Homo sapiens) (P50750 whole entry): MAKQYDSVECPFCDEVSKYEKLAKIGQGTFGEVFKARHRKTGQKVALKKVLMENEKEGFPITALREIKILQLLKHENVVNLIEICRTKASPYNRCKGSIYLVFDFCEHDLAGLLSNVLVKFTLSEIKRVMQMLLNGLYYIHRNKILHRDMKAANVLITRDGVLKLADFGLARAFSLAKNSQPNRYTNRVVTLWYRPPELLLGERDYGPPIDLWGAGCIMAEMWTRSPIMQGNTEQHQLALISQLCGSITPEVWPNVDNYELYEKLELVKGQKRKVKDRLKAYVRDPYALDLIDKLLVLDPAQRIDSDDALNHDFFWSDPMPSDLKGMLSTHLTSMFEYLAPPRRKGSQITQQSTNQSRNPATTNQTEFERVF
Sequence of Beta-2 adrenergic receptor (Homo sapiens) (P07550 whole entry, looked up): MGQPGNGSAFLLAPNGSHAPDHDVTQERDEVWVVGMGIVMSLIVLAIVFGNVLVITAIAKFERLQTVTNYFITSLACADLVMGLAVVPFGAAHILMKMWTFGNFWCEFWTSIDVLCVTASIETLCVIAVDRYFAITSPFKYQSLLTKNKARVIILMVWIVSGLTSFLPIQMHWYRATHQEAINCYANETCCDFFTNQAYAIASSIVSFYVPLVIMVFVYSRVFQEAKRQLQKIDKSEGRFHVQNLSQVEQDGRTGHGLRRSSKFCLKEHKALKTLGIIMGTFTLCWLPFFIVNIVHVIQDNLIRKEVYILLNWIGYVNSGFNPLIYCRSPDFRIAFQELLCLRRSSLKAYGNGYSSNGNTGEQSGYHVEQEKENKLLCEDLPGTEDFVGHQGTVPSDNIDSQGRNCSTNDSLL
Sequence of Histone acetyltransferase KAT2B (Homo sapiens) (Q92831 whole entry, looked up): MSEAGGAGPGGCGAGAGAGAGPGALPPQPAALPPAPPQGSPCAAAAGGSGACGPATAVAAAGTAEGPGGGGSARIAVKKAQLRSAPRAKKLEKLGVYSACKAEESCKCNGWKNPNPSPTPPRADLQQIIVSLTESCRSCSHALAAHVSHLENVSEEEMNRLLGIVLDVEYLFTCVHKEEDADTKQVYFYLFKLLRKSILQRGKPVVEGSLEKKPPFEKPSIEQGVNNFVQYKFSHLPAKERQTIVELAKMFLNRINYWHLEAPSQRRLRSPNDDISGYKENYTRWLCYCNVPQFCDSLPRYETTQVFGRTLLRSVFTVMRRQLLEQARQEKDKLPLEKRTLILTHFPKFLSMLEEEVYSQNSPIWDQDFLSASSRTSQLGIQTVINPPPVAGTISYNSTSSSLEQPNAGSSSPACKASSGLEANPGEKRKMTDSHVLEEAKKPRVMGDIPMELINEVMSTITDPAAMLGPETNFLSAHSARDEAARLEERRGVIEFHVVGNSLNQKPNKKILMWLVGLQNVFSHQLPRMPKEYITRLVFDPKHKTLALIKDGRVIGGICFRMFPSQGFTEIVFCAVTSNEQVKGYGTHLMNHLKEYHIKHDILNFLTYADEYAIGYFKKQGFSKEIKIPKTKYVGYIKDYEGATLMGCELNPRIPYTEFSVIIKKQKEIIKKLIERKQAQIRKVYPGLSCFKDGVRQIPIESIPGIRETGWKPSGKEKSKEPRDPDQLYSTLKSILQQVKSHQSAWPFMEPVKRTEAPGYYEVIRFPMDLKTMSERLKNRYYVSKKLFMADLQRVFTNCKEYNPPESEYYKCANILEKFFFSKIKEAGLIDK

As a reminder, the inhibition is the drop in the measured response relative to a control, in per cent. Regarding `CNC(=O)Nc1ccc2c(c1)CC[C@@]21OC(=O)N(CC(=O)N(Cc2ccc(F)cc2)[C@@H](C)C(F)(F)F)C1=O` [A-485], the results for the Ki in experiment [1] (read-out: Ki) and in [1] (read-out: pKi (converted)) were 1.82 µM and 1.78 µM, respectively. Also, the figures for the inhibition in experiment [2] and in [3] were 8% and 1%, respectively. The “Cell Proliferation EC50” value with Calu-6 is 8.573 µM; in the experiment on HCC2935, over 10 µM; in the experiment on COLO-679, 2.258 µM; in the experiment with Hs 695T it was 3.571 µM; with NCI-H69 it was over 10 µM; in the experiment with NCI-H2081, over 10 µM. In addition, the “Cell Proliferation EC50” value with EMT6 came to 0.4989 µM; with DU-4475, 0.6683 µM; with NCI-H929 it was 0.329 µM; with SU-DHL-8, 0.54 µM; in the experiment with OCI-Ly7 it was 1.813 µM; with Kasumi 1 it was 0.285 µM.
In general, residual activity refers to the share of the control activity or signal that is left under treatment. For the molecule `CNC(=O)Nc1ccc2c(c1)[C@@]1(CC2)OC(=O)N(CC(=O)N(Cc2ccc(F)cc2)[C@@H](C)C(F)(F)F)C1=O` [A-486], the inhibition in experiment [4] is -10%. Also, the residual activity in experiment [5] was 89%; in experiment [6] it was 91%; in experiment [7], 96%.
